From ChEMBL document CHEMBL4229569, “Structure-Based Design of 1-Heteroaryl-1,3-propanediamine Derivatives as a Novel Series of CC-Chemokine Receptor 5 Antagonists” (J Med Chem, 2018)

Key:
[1] = biological target: C-C chemokine receptor type 5 (Homo sapiens, UniProt P51681); assay: Antagonist activity at CCR5 (unknown origin) expressed in HEK293 cells co-expressing Galpha16 assessed as inhibition of RANTES-induced calcium flux preincubated for 10 mins followed by RANTES addition by fluo-4AM-based fluorescence assay; type: functional, cell-based
[2] = system: Human immunodeficiency virus 1; assay: microbe, parasite or virus in culture; settings: Human immunodeficiency virus 1, Ba-L, PBMC, 168 h
Description: Antiviral activity against CCR5-dependent HIV1 Ba-L infected in human PBMC assessed as reduction in virus infection measured 7 days by luciferase reporter gene assay

[3] = MRT in Sprague-Dawley rat at 10 mg/kg, iv by LC-MS/MS analysis; type: ADME, organism-based; settings: in vivo
Cytochrome P450 2D6 = Cytochrome P450 2D6 (Homo sapiens, UniProt P10635); assay: Inhibition of CYP2D6 (unknown origin); type: ADME
in vitro [4] = settings: human, HOS cells
Description: Therapeutic index, ratio of CC50 for human HOS cells to IC50 for CCR5-dependent HIV1 SF162 infected in human HOS cells

Cytochrome P450 3A4 [5] = biological target: T1, Cytochrome P450 3A4 (Homo sapiens, UniProt P08684); assay: Inhibition of CYP3A4 (unknown origin) using testosterone as substrate; type: ADME
in vitro [6] = settings: human, PBMC
Description: Therapeutic index, ratio of CC50 for human PBMC to IC50 for CCR5-dependent HIV1 SF162 infected in human PBMC cells

[7] = system: Human immunodeficiency virus 1; assay: microbe, parasite or virus in culture; settings: Human immunodeficiency virus 1, Ba-L, HOS, 120 h
Description: Antiviral activity against CCR5-dependent HIV1 Ba-L infected in human HOS cells assessed as reduction in virus infection measured after 5 days by luciferase reporter gene assay

[8] = biological target: Voltage-gated inwardly rectifying potassium channel KCNH2 (Homo sapiens, UniProt Q12809); assay: Inhibition of human ERG expressed in CHO cells at holding potential of -80 mV after 60 secs by patch clamp assay; type: cell-based
[9] = Tmax in Sprague-Dawley rat at 20 mg/kg, po by LC-MS/MS analysis; type: ADME, organism-based; settings: in vivo
[10] = system: Human immunodeficiency virus 1; assay: microbe, parasite or virus in culture; settings: Human immunodeficiency virus 1, SF162, PBMC, 168 h
Description: Antiviral activity against CCR5-dependent HIV1 SF162 infected in human PBMC assessed as reduction in virus infection measured after 7 days by luciferase reporter gene assay

Cytochrome P450 3A4 [11] = biological target: T1, Cytochrome P450 3A4; assay: Inhibition of CYP3A4 (unknown origin) using midazolam as substrate; type: ADME
in vitro [12] = settings: human, PBMC; remark: listed apart in the source
Description: Therapeutic index, ratio of CC50 for human PBMC to IC50 for CCR5-dependent HIV1 KM018 infected in human PBMC

[13] = AUC (0 to infinity) in Sprague-Dawley rat at 10 mg/kg, iv by LC-MS/MS analysis; type: ADME, organism-based; set-up: dose 10 mg/kg, time infinity, route intravenous; settings: in vivo
[14] = MRT in Sprague-Dawley rat at 20 mg/kg, po by LC-MS/MS analysis; type: ADME, organism-based; settings: in vivo
[15] = Cytotoxicity against human TZM-bl cells after 48 hrs by MTT assay; type: cell-based
[16] = system: Human immunodeficiency virus 1; assay: microbe, parasite or virus in culture; settings: Human immunodeficiency virus 1, SF162, HOS, 120 h
Description: Antiviral activity against CCR5-dependent HIV1 SF162 infected in human HOS cells assessed as reduction in virus infection measured after 5 days by luciferase reporter gene assay

[17] = system: Human immunodeficiency virus 1; assay: microbe, parasite or virus in culture; settings: Human immunodeficiency virus 1, SF162, TZM-bl, 48 h
Description: Antiviral activity against CCR5-dependent HIV1 SF162 infected in human TZM-bl cells assessed as reduction in virus infection measured after 48 hrs post infection by luciferase reporter gene assay

[18] = Half life in Sprague-Dawley rat at 10 mg/kg, iv by LC-MS/MS analysis; type: ADME, organism-based; settings: in vivo
[19] = Oral bioavailability in Sprague-Dawley rat at 20 mg/kg by LC-MS/MS analysis; type: ADME, organism-based; settings: in vivo
[20] = AUC (0 to infinity) in Sprague-Dawley rat at 20 mg/kg, po by LC-MS/MS analysis; type: ADME, organism-based; set-up: dose 20 mg/kg, route oral, time infinity; settings: in vivo
in vitro [21] = settings: human, TZM-bl cells
Description: Therapeutic index, ratio of CC50 for human TZM-bl cells to EC50 for CCR5-dependent HIV1 SF162 infected in human TZM-bl cells

[22] = Cmax in Sprague-Dawley rat at 10 mg/kg, iv by LC-MS/MS analysis; type: ADME, organism-based; set-up: dose 10 mg/kg, route intravenous; settings: in vivo
[23] = system: Human immunodeficiency virus 1; assay: microbe, parasite or virus in culture; settings: Human immunodeficiency virus 1, Ba-L, PM1, 120 h
Description: Antiviral activity against CCR5-dependent HIV1 Ba-L infected in human PM1 cells assessed as reduction in virus infection measured after 5 days by luciferase reporter gene assay

[24] = Tmax in Sprague-Dawley rat at 10 mg/kg, iv by LC-MS/MS analysis; type: ADME, organism-based; settings: in vivo
[25] = Clearance in Sprague-Dawley rat at 10 mg/kg, iv by LC-MS/MS analysis; type: ADME, organism-based; settings: in vivo
in vitro [26] = settings: human, PBMC; remark: listed apart in the source
Description: Therapeutic index, ratio of CC50 for human PBMC to IC50 for CCR5-dependent HIV1 Ba-L infected in human PBMC

[27] = Cmax in Sprague-Dawley rat at 20 mg/kg, po by LC-MS/MS analysis; type: ADME, organism-based; set-up: dose 20 mg/kg, route oral; settings: in vivo
Cytochrome P450 1A2 = biological target: T2, Cytochrome P450 1A2 (Homo sapiens, UniProt P05177); assay: Inhibition of CYP1A2 (unknown origin); type: ADME
T2 sequence (P05177 whole entry): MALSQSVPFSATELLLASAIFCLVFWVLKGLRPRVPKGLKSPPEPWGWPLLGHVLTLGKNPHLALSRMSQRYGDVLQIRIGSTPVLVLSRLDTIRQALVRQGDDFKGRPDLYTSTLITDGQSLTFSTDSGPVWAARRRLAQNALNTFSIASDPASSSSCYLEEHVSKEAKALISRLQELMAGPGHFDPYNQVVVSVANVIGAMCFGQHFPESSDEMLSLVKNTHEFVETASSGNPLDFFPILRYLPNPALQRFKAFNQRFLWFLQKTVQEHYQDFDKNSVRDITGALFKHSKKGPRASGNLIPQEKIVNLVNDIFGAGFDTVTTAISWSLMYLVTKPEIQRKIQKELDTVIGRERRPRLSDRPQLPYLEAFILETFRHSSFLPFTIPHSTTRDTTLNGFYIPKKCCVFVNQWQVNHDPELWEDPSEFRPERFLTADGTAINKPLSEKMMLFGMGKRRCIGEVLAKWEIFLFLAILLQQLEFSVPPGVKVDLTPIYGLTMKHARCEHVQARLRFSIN

in vitro [28] = settings: human, HOS cells; remark: listed apart in the source
Description: Therapeutic index, ratio of CC50 for human HOS cells to IC50 for CCR5-dependent HIV1 Ba-L infected in human HOS cells

Cytochrome P450 2C19 = Cytochrome P450 2C19 (Homo sapiens, UniProt P33261); assay: Inhibition of CYP2C19 (unknown origin); type: ADME
[29] = Half life in Sprague-Dawley rat at 20 mg/kg, po by LC-MS/MS analysis; type: ADME, organism-based; settings: in vivo
[30] = system: Human immunodeficiency virus 1; assay: microbe, parasite or virus in culture; settings: Human immunodeficiency virus 1, KM018, PBMC, 168 h
Description: Antiviral activity against CCR5-dependent HIV1 KM018 infected in human PBMC assessed as reduction in virus infection measured after 7 days by luciferase reporter gene assay

in vitro [31] = settings: human, PM1 cells
Description: Therapeutic index, ratio of CC50 for human PM1 cells to IC50 for CCR5-dependent HIV1 Ba-L infected in human PM1 cells

Cytochrome P450 2C9 = Cytochrome P450 2C9 (Homo sapiens, UniProt P11712); assay: Inhibition of CYP2C9 (unknown origin); type: ADME
Cytochrome P450 2C9, sequence (P11712 whole entry): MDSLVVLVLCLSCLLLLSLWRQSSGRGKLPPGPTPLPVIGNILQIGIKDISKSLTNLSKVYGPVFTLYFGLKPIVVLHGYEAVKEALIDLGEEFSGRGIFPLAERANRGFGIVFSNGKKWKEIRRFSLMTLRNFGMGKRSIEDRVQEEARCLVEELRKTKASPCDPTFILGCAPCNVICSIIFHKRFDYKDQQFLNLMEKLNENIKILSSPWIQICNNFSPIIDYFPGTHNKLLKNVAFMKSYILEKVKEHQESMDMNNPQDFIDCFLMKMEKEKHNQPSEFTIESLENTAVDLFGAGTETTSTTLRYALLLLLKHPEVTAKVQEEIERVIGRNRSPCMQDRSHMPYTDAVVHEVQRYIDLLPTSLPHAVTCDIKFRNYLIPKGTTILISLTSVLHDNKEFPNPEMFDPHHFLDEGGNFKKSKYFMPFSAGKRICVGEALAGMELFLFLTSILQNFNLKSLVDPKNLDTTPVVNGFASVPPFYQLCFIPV

C-C chemokine receptor type 5, sequence (P51681 whole entry): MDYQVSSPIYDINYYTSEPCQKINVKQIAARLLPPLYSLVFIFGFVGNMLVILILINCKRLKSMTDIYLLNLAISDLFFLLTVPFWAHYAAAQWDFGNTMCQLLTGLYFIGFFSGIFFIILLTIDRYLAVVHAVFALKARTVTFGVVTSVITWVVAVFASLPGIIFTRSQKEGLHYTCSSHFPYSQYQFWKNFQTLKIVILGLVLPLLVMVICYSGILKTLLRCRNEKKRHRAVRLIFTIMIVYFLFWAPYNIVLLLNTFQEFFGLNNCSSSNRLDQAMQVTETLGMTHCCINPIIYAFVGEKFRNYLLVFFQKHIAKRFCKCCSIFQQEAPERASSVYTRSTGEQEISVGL
T1 sequence (P08684 whole entry): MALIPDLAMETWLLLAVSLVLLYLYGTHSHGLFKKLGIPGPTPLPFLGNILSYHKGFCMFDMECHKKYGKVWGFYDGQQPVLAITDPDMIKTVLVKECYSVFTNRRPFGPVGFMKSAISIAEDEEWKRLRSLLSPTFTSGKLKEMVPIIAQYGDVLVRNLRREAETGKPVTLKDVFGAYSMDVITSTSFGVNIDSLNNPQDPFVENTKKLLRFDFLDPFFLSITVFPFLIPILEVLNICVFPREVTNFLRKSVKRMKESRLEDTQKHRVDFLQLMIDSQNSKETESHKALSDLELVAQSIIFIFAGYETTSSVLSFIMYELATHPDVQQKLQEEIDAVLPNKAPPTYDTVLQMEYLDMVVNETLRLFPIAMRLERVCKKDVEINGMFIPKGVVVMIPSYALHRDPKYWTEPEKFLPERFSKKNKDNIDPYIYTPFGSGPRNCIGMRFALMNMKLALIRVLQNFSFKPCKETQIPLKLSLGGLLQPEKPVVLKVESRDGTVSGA
Voltage-gated inwardly rectifying potassium channel KCNH2, sequence (Q12809 whole entry): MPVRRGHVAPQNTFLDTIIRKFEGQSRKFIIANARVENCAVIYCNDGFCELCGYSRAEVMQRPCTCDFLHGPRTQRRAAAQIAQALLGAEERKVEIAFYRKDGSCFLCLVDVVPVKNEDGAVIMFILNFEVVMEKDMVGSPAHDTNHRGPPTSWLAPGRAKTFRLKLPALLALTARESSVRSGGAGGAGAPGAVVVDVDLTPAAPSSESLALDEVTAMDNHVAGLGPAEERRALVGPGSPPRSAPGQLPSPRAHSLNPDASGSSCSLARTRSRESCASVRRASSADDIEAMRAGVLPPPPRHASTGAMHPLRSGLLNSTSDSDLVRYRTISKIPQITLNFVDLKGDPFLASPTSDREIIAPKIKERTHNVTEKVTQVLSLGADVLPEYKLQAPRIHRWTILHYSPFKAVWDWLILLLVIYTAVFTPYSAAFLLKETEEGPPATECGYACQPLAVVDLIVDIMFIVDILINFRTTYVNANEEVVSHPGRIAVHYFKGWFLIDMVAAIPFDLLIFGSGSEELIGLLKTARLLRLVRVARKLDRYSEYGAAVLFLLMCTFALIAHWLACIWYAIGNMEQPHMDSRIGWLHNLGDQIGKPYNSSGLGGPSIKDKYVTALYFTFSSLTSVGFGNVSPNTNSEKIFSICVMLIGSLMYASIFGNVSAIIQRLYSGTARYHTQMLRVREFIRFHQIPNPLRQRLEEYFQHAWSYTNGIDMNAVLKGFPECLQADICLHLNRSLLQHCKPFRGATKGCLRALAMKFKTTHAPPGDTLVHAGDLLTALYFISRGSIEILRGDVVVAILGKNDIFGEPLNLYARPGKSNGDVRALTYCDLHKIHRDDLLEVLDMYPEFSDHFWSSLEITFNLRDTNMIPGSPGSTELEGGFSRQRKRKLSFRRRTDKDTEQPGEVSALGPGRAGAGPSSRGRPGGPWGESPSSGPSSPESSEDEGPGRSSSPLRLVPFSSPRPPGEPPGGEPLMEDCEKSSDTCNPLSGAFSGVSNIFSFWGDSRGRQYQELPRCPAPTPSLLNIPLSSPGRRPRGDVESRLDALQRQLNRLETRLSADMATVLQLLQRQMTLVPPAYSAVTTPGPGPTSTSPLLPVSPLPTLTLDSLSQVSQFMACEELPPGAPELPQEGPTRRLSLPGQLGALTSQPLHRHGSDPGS
Cytochrome P450 2D6, sequence (P10635 whole entry): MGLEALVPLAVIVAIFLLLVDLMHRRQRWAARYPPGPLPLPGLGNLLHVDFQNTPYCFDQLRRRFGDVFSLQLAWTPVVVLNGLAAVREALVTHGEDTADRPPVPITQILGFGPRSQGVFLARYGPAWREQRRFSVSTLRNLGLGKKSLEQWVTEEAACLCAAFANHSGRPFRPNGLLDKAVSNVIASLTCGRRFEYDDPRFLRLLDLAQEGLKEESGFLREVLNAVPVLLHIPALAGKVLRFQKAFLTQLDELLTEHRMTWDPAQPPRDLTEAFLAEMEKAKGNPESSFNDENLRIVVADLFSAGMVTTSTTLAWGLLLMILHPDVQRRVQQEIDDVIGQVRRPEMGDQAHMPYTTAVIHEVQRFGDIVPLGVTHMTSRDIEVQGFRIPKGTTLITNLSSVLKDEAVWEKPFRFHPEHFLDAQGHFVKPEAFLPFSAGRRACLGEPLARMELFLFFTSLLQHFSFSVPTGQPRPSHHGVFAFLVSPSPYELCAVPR
Cytochrome P450 2C19, sequence (P33261 whole entry): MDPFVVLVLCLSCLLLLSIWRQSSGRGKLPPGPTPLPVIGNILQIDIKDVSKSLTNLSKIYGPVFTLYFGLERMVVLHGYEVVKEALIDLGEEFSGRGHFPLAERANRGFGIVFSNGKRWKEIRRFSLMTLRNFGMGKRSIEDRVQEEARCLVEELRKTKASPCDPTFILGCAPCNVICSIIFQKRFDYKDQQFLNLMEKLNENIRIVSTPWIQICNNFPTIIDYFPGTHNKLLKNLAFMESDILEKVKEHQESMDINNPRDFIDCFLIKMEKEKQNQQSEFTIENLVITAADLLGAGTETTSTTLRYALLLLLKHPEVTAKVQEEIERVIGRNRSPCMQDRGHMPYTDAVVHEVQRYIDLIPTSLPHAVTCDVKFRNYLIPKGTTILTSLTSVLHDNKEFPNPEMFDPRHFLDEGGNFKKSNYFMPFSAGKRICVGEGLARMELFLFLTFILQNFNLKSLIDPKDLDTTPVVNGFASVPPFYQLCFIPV

Cc1nnc(C(C)C)n1[C@@H]1C[C@H]2CC[C@@H](C1)N2CC[C@H](NC(=O)C1CCC(F)CC1)c1cccs1 (some centres not stated)
IC50 [1]: 3 nM

Cc1nnc(C(C)C)n1[C@@H]1C[C@H]2CC[C@@H](C1)N2CC[C@H](NC(=O)C1CCC(F)(F)CC1)c1cscn1
IC50 [1]: 27.1 nM

Cc1nnc(C(C)C)n1[C@@H]1C[C@H]2CC[C@@H](C1)N2CC[C@H](NC(=O)C1CCC(F)(F)CC1)c1ccc(F)nc1
IC50 [1]: 252 nM

COc1ccc([C@H](CCN2[C@@H]3CC[C@H]2C[C@H](n2c(C)nnc2C(C)C)C3)NC(=O)C2CCC(F)(F)CC2)s1
IC50 [1]: 6.8 nM

Cc1nnc(C(C)C)n1[C@@H]1C[C@H]2CC[C@@H](C1)N2CC[C@H](NC(=O)C1CCC(F)(F)CC1)c1cccs1
IC50 [2]: 28.5 nM | MRT [3]: 0.7 h | IC50 (Cytochrome P450 2D6): > 25000 nM | selectivity ratio (in vitro [4]): 28000 | IC50 (Cytochrome P450 3A4 [5]): > 25000 nM | selectivity ratio (in vitro [6]): 92000 | IC50 [7]: 3.6 nM | IC50 [1]: 9.1 nM | IC50 [8]: 3500 nM | Tmax [9]: 4 h | IC50 [10]: 2.9 nM | IC50 (Cytochrome P450 3A4 [11]): > 25000 nM | selectivity ratio (in vitro [12]): 56000 | AUC(0-inf) [13]: 7050 ng·h/mL | MRT [14]: 3.3 h | CC50 at 48 h [15]: > 200000 nM | IC50 [16]: 13.1 nM | IC50 [17]: 3.6 nM | half-life [18]: 0.77 h | bioavailability [19]: 7.8% | AUC(0-inf) [20]: 1110 ng·h/mL | selectivity ratio (in vitro [21]): > 55000 | Cmax [22]: 6840 ng/mL | IC50 [23]: 6.2 nM | Tmax [24]: 0.25 h | clearance [25]: 23.7 mL/min/kg | selectivity ratio (in vitro [26]): 9400 | Cmax [27]: 266 ng/mL | IC50 (Cytochrome P450 1A2): > 25000 nM | selectivity ratio (in vitro [28]): 100000 | IC50 (Cytochrome P450 2C19): > 25000 nM | half-life [29]: 2.1 h | IC50 [30]: 4.8 nM | selectivity ratio (in vitro [31]): 99000 | IC50 (Cytochrome P450 2C9): > 25000 nM

Cc1ccc([C@H](CCN2[C@@H]3CC[C@H]2C[C@H](n2c(C)nnc2C(C)C)C3)NC(=O)c2ccccc2)s1
IC50 [1]: 51.7 nM

Cc1nnc(C(C)C)n1[C@@H]1C[C@H]2CC[C@@H](C1)N2CC[C@H](NC(=O)C1CCC(F)(F)CC1)c1ccc(F)s1
IC50 [1]: 15.8 nM | CC50 at 48 h [15]: > 200000 nM | IC50 [17]: 520 nM | selectivity ratio (in vitro [21]): > 385

Cc1ccc([C@H](CCN2[C@@H]3CC[C@H]2C[C@H](n2c(C)nnc2C(C)C)C3)NC(=O)C2CCCC2)s1
IC50 [1]: 2.6 nM

Cc1cscc1[C@H](CCN1[C@@H]2CC[C@H]1C[C@H](n1c(C)nnc1C(C)C)C2)NC(=O)C1CCC(F)(F)CC1
IC50 [1]: 8.1 nM

Cc1nnc(C(C)C)n1[C@@H]1C[C@H]2CC[C@@H](C1)N2CC[C@H](NC(=O)C1CCC(=O)C1)c1cccs1 (some centres not stated)
IC50 [1]: 2.9 nM

Cc1nnc(C2CC2)n1[C@@H]1C[C@H]2CC[C@@H](C1)N2CC[C@H](NC(=O)C1CCC(F)(F)CC1)c1cccs1
IC50 [1]: 2.9 nM

Cc1ccc([C@H](CCN2[C@@H]3CC[C@H]2C[C@H](n2c(C)nnc2C(C)C)C3)NC(=O)C2CCC(F)(F)CC2)s1
IC50 [2]: 240 nM | MRT [3]: 2.3 h | IC50 (Cytochrome P450 2D6): > 25000 nM | selectivity ratio (in vitro [4]): > 11000 | IC50 (Cytochrome P450 3A4 [5]): 23400 nM | selectivity ratio (in vitro [6]): > 29000 | IC50 [7]: 11.4 nM | IC50 [1]: 2.8 nM | IC50 [8]: 3380 nM | Tmax [9]: 2 h | IC50 [10]: 6.7 nM | IC50 (Cytochrome P450 3A4 [11]): 10900 nM | selectivity ratio (in vitro [12]): > 1600 | AUC(0-inf) [13]: 2330 ng·h/mL | MRT [14]: 4.8 h | CC50 at 48 h [15]: > 200000 nM | IC50 [16]: 18.8 nM | IC50 [17]: 11.5 nM | half-life [18]: 1.6 h | bioavailability [19]: 40.1% | AUC(0-inf) [20]: 1870 ng·h/mL | selectivity ratio (in vitro [21]): > 17000 | Cmax [22]: 1690 ng/mL | IC50 [23]: 14.9 nM | Tmax [24]: 0.25 h | clearance [25]: 71.7 mL/min/kg | selectivity ratio (in vitro [26]): > 833 | Cmax [27]: 580 ng/mL | IC50 (Cytochrome P450 1A2): > 25000 nM | selectivity ratio (in vitro [28]): > 18000 | IC50 (Cytochrome P450 2C19): > 25000 nM | half-life [29]: 32.8 h | IC50 [30]: 126 nM | selectivity ratio (in vitro [31]): > 13000 | IC50 (Cytochrome P450 2C9): > 25000 nM

Cc1nnc(C(C)C)n1[C@@H]1C[C@H]2CC[C@@H](C1)N2CC[C@H](NC(=O)C1CCC(F)(F)CC1)c1cccnc1
IC50 [1]: 82.6 nM | CC50 at 48 h [15]: > 100000 nM | IC50 [17]: 1520 nM | selectivity ratio (in vitro [21]): > 65.8
